Results on 1 compound are retold here after publication PMC10392676, “Structural basis of anti-SARS-CoV-2 activity of HCQ: specific binding to N protein to disrupt its interaction with nucleic acids and LLPS” (QRB Discovery, 2021).

Test [1] concerns the target NTD of SARS-CoV-2 nucleocapsid (N) protein (Severe acute respiratory syndrome coronavirus 2, UniProt P0DTC9). As to the kind of experiment: 1H-15N HSQC NMR titration, […] MHz, one-site fit of chemical shift differences, average of […] residues. In kind it is binding.
Test [2] deals with CTD of SARS-CoV-2 nucleocapsid (N) protein (Severe acute respiratory syndrome coronavirus 2, UniProt P0DTC9). Described as above. In kind it is binding.

Molecules are shown by their SMILES.

As usually defined, the Kd is the equilibrium constant for the complex coming apart. Consider `CCN(CCO)CCCC(C)Nc1ccnc2cc(Cl)ccc12` (centres unmarked) [Hydroxychloroquine], for which the Kd in test [1] came out at 112 ± 32.2 µM; in test [2] it was 52.1 ± 17.6 µM.
